How the values were obtained:
APH(2”)-IVa = APH(2”)-IVa (Enterococcus casseliflavus, UniProt O68183); assay: biochemical; format: binding
Protocol: ITC experiments were performed on three different machines: a MicroCal VP-ITC (GE Healthcare), a MicroCal PEAQ-ITC (Malvern), or a MicroCal iTC200 (Malvern). The architecture and principles are similar for the three different systems. The experiments were carried out in Buffer HEPES at 25 °C. Titrations consisted of twenty injections of 1.5 µL inhibitors, every 120 seconds, into the measuring cell using the injection syringe rotating at 750 rpm. The data were analyzed using the MicroCal PEAQ-ITC software (v. 1.52, Malvern) using the single-site binding model to fit the raw data. The standard error of the Kd value was determined from measurements made on distinct samples (n indicated in the text).

APH(3’)-Ic = format: biochemical, A. baumannii; details: 100 µM of 83
P. aeruginosa C0307 = assay: Checkerboard assay of 83 with kanamycin A; format: cell-based; details: for MIC of kanamycin A: 18 h at 37 °C

APH(2”)-IVa, sequence (O68183 1-301): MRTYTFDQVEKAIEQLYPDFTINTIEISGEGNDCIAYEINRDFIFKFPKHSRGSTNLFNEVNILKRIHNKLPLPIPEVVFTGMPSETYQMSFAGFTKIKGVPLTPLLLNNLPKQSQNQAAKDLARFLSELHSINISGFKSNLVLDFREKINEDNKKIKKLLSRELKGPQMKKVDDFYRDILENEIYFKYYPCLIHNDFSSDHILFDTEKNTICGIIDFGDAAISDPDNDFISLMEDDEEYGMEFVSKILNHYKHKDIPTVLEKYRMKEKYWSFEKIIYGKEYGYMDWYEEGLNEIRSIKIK

With `Clc1cnc2[nH]ccc2c1-c1ccn[nH]1` [Compound 83] the Kd (APH(2”)-IVa) was 1.06 ± 0.17 µM, the ΔH (APH(2”)-IVa; ITC) was -11.0 kcal/mol and the “Inhibition (%)” value (APH(3’)-Ic) was 35%. The “MIC of kanamycin A” value (P. aeruginosa C0307; 0 µg mL^−1 imipenem, [83] 2 µg mL^−1) was 64 µg/mL, the “MIC of kanamycin A” value (P. aeruginosa C0307; 0 µg mL^−1 imipenem, [83] 4 µg mL^−1) was 64 µg/mL and the “MIC of kanamycin A” value (P. aeruginosa C0307; 0 µg mL^−1 imipenem, [83] 8 µg mL^−1) was 64 µg/mL. For the same compound, the “MIC of kanamycin A” value (P. aeruginosa C0307; 0 µg mL^−1 imipenem, [83] 16 µg mL^−1) was 64 µg/mL, the “MIC of kanamycin A” value (P. aeruginosa C0307; 0 µg mL^−1 imipenem, [83] 32 µg mL^−1) was 64 µg/mL and the “MIC of kanamycin A” value (P. aeruginosa C0307; 0 µg mL^−1 imipenem, [83] 64 µg mL^−1) was 64 µg/mL. The “MIC of kanamycin A” value (P. aeruginosa C0307; 0 µg mL^−1 imipenem, [83] 128 µg mL^−1) was 32 µg/mL, the “MIC of kanamycin A” value (P. aeruginosa C0307; 0.05 µg mL^−1 imipenem, [83] 2 µg mL^−1) was 64 µg/mL and the “MIC of kanamycin A” value (P. aeruginosa C0307; 0.05 µg mL^−1 imipenem, [83] 4 µg mL^−1) was 64 µg/mL. For the same compound, the “MIC of kanamycin A” value (P. aeruginosa C0307; 0.05 µg mL^−1 imipenem, [83] 8 µg mL^−1) was 64 µg/mL, the “MIC of kanamycin A” value (P. aeruginosa C0307; 0.05 µg mL^−1 imipenem, [83] 16 µg mL^−1) was 64 µg/mL and the “MIC of kanamycin A” value (P. aeruginosa C0307; 0.05 µg mL^−1 imipenem, [83] 32 µg mL^−1) was 64 µg/mL. The “MIC of kanamycin A” value (P. aeruginosa C0307; 0.05 µg mL^−1 imipenem, [83] 64 µg mL^−1) was 64 µg/mL, the “MIC of kanamycin A” value (P. aeruginosa C0307; 0.05 µg mL^−1 imipenem, [83] 128 µg mL^−1) was 32 µg/mL and the “checkerboard well reading (growth)” value (P. aeruginosa C0307; Supp. Figure 3 A, 83 1 µg.mL-1, kanamycin A 0 µg.mL-1) was 1.117. For the same compound, the “checkerboard well reading (growth)” value (P. aeruginosa C0307; Supp. Figure 3 A, 83 1 µg.mL-1, kanamycin A 2 µg.mL-1) was 1.340, the “checkerboard well reading (growth)” value (P. aeruginosa C0307; Supp. Figure 3 A, 83 1 µg.mL-1, kanamycin A 4 µg.mL-1) was 1.454 and the “checkerboard well reading (growth)” value (P. aeruginosa C0307; Supp. Figure 3 A, 83 1 µg.mL-1, kanamycin A 8 µg.mL-1) was 1.268. The “checkerboard well reading (growth)” value (P. aeruginosa C0307; Supp. Figure 3 A, 83 16 µg.mL-1, kanamycin A 0 µg.mL-1) was 1.272, the “checkerboard well reading (growth)” value (P. aeruginosa C0307; Supp. Figure 3 A, 83 16 µg.mL-1, kanamycin A 2 µg.mL-1) was 1.771 and the “checkerboard well reading (growth)” value (P. aeruginosa C0307; Supp. Figure 3 A, 83 16 µg.mL-1, kanamycin A 4 µg.mL-1) was 1.508. The “checkerboard well reading (growth)” value (P. aeruginosa C0307; Supp. Figure 3 A, 83 16 µg.mL-1, kanamycin A 8 µg.mL-1) was 1.668, the “checkerboard well reading (growth)” value (P. aeruginosa C0307; Supp. Figure 3 A, 83 16 µg.mL-1, kanamycin A 16 µg.mL-1) was 1.123 and the “checkerboard well reading (growth)” value (P. aeruginosa C0307; Supp. Figure 3 A, 83 16 µg.mL-1, kanamycin A 32 µg.mL-1) was 1.123. The “checkerboard well reading (growth)” value (P. aeruginosa C0307; Supp. Figure 3 A, 83 16 µg.mL-1, kanamycin A 64 µg.mL-1) was 0.184, the “checkerboard well reading (growth)” value (P. aeruginosa C0307; Supp. Figure 3 A, 83 16 µg.mL-1, kanamycin A 128 µg.mL-1) was 0.041 and the “checkerboard well reading (growth)” value (P. aeruginosa C0307; Supp. Figure 3 A, 83 32 µg.mL-1, kanamycin A 0 µg.mL-1) was 1.376. The “checkerboard well reading (growth)” value (P. aeruginosa C0307; Supp. Figure 3 A, 83 32 µg.mL-1, kanamycin A 2 µg.mL-1) was 1.667, the “checkerboard well reading (growth)” value (P. aeruginosa C0307; Supp. Figure 3 A, 83 32 µg.mL-1, kanamycin A 4 µg.mL-1) was 1.435 and the “checkerboard well reading (growth)” value (P. aeruginosa C0307; Supp. Figure 3 A, 83 32 µg.mL-1, kanamycin A 8 µg.mL-1) was 1.524. For the same compound, the “checkerboard well reading (growth)” value (P. aeruginosa C0307; Supp. Figure 3 A, 83 32 µg.mL-1, kanamycin A 16 µg.mL-1) was 1.359, the “checkerboard well reading (growth)” value (P. aeruginosa C0307; Supp. Figure 3 A, 83 32 µg.mL-1, kanamycin A 32 µg.mL-1) was 1.130 and the “checkerboard well reading (growth)” value (P. aeruginosa C0307; Supp. Figure 3 A, 83 32 µg.mL-1, kanamycin A 64 µg.mL-1) was 0.118. The “checkerboard well reading (growth)” value (P. aeruginosa C0307; Supp. Figure 3 A, 83 32 µg.mL-1, kanamycin A 128 µg.mL-1) was 0.042, the “checkerboard well reading (growth)” value (P. aeruginosa C0307; Supp. Figure 3 A, 83 64 µg.mL-1, kanamycin A 0 µg.mL-1) was 1.213 and the “checkerboard well reading (growth)” value (P. aeruginosa C0307; Supp. Figure 3 A, 83 64 µg.mL-1, kanamycin A 2 µg.mL-1) was 1.320. The “checkerboard well reading (growth)” value (P. aeruginosa C0307; Supp. Figure 3 A, 83 64 µg.mL-1, kanamycin A 4 µg.mL-1) was 1.451, the “checkerboard well reading (growth)” value (P. aeruginosa C0307; Supp. Figure 3 A, 83 64 µg.mL-1, kanamycin A 8 µg.mL-1) was 1.433 and the “checkerboard well reading (growth)” value (P. aeruginosa C0307; Supp. Figure 3 A, 83 64 µg.mL-1, kanamycin A 16 µg.mL-1) was 1.312. For the same compound, the “checkerboard well reading (growth)” value (P. aeruginosa C0307; Supp. Figure 3 A, 83 64 µg.mL-1, kanamycin A 32 µg.mL-1) was 1.055, the “checkerboard well reading (growth)” value (P. aeruginosa C0307; Supp. Figure 3 A, 83 64 µg.mL-1, kanamycin A 64 µg.mL-1) was 0.042 and the “checkerboard well reading (growth)” value (P. aeruginosa C0307; Supp. Figure 3 A, 83 64 µg.mL-1, kanamycin A 128 µg.mL-1) was 0.044. The “checkerboard well reading (growth)” value (P. aeruginosa C0307; Supp. Figure 3 A, 83 128 µg.mL-1, kanamycin A 0 µg.mL-1) was 1.324, the “checkerboard well reading (growth)” value (P. aeruginosa C0307; Supp. Figure 3 A, 83 128 µg.mL-1, kanamycin A 2 µg.mL-1) was 1.439 and the “checkerboard well reading (growth)” value (P. aeruginosa C0307; Supp. Figure 3 A, 83 128 µg.mL-1, kanamycin A 4 µg.mL-1) was 1.308. The “checkerboard well reading (growth)” value (P. aeruginosa C0307; Supp. Figure 3 A, 83 128 µg.mL-1, kanamycin A 8 µg.mL-1) was 1.307, the “checkerboard well reading (growth)” value (P. aeruginosa C0307; Supp. Figure 3 A, 83 128 µg.mL-1, kanamycin A 16 µg.mL-1) was 1.218 and the “checkerboard well reading (growth)” value (P. aeruginosa C0307; Supp. Figure 3 A, 83 128 µg.mL-1, kanamycin A 32 µg.mL-1) was 0.227. The “checkerboard well reading (growth)” value (P. aeruginosa C0307; Supp. Figure 3 A, 83 128 µg.mL-1, kanamycin A 64 µg.mL-1) was 0.039, the “checkerboard well reading (growth)” value (P. aeruginosa C0307; Supp. Figure 3 A, 83 128 µg.mL-1, kanamycin A 128 µg.mL-1) was 0.039 and the “checkerboard well reading (growth)” value (P. aeruginosa C0307; Supp. Figure 3 B, 83 1 µg.mL-1, kanamycin A 0 µg.mL-1) was 1.239. The “checkerboard well reading (growth)” value (P. aeruginosa C0307; Supp. Figure 3 B, 83 1 µg.mL-1, kanamycin A 2 µg.mL-1) was 1.239, the “checkerboard well reading (growth)” value (P. aeruginosa C0307; Supp. Figure 3 B, 83 1 µg.mL-1, kanamycin A 4 µg.mL-1) was 1.159 and the “checkerboard well reading (growth)” value (P. aeruginosa C0307; Supp. Figure 3 B, 83 1 µg.mL-1, kanamycin A 8 µg.mL-1) was 1.192. For the same compound, the “checkerboard well reading (growth)” value (P. aeruginosa C0307; Supp. Figure 3 B, 83 1 µg.mL-1, kanamycin A 16 µg.mL-1) was 1.219 and the “checkerboard well reading (growth)” value (P. aeruginosa C0307; Supp. Figure 3 B, 83 1 µg.mL-1, kanamycin A 32 µg.mL-1) was 1.181.

From PMC12749166, “Fragment-based drug design of a bacterial kinase inhibitor capable of increasing the antibiotic sensitivity of clinical isolates” (Communications Chemistry, 2025)
